Consider 14 compounds from US10670605B2, “Cysteine reactive probes and uses thereof” (The Scripps Research Institute, priority 2015, dated 2020).

What all share (test): Competitive isoTOP-ABPP, cell lysates
Common to all, as to type: binding

One experiment concerns the target T1, PDE12 C108 (Q6L8Q7) (Homo sapiens, UniProt Q6L8Q7).
T1 sequence (Q6L8Q7 43-609): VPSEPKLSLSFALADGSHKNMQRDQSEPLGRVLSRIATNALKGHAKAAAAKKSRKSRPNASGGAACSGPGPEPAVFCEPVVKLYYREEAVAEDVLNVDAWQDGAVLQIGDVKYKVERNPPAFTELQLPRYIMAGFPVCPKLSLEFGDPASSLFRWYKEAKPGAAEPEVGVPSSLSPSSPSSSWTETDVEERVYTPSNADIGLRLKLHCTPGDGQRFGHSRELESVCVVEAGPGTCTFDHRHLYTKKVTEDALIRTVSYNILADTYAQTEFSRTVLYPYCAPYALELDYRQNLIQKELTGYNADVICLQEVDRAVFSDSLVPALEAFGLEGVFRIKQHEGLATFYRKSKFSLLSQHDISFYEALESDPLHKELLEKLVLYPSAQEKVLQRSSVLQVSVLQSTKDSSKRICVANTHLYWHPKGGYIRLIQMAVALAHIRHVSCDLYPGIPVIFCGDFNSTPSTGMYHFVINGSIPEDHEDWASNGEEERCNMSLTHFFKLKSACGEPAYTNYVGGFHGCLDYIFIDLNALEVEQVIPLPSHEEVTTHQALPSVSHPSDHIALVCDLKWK
Particulars: for R value (DMSO/fragment) / isoTOP-ABPP ratio, Q6L8Q7_C108: 500 μM.

The target of another experiment is IDH1 C269 (O75874) (Homo sapiens, UniProt O75874).
Sequence of IDH1 C269 (O75874) (O75874 whole entry): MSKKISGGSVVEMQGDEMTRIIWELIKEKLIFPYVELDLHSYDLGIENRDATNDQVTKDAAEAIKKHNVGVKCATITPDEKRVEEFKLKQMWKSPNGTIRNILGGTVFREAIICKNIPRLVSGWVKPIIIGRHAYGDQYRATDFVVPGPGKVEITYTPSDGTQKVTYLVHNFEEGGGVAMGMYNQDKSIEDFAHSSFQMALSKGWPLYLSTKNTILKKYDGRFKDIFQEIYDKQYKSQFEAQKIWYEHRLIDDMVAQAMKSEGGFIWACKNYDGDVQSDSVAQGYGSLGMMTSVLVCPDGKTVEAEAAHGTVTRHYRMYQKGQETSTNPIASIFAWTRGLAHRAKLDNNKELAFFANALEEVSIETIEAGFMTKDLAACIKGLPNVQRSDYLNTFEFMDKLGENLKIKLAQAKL
The next experiment has as its target T2, AIP C122 (O00170) (Homo sapiens, UniProt O00170).
T2 sequence (O00170 1-330): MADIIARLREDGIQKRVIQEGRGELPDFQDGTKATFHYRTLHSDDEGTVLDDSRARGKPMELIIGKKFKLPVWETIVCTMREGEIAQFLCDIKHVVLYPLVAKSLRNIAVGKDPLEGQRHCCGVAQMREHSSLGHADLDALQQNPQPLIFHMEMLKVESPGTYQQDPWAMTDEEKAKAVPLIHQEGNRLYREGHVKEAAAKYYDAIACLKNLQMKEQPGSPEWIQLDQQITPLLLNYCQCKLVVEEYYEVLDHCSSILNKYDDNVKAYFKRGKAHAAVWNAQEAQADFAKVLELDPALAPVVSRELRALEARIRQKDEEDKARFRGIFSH

A further experiment concerns the target T3, PCK2 C306 (Q16822) (Homo sapiens, UniProt Q16822).
T3 sequence (Q16822 33-640): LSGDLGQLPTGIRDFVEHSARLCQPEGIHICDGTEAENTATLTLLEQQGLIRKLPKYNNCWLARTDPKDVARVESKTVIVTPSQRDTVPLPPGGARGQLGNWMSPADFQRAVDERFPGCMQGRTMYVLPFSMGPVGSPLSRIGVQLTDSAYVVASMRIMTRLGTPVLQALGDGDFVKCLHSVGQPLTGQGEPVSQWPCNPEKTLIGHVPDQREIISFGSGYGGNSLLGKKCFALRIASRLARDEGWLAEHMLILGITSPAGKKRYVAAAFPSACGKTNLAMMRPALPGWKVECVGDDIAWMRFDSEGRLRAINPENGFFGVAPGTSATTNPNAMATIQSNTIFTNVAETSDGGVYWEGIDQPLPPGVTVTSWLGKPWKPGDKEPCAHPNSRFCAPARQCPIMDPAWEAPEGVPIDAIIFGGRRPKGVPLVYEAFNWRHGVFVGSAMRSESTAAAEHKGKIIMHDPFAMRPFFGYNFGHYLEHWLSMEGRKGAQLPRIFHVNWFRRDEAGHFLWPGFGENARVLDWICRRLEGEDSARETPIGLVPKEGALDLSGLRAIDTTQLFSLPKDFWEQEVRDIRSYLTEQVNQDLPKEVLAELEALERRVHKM

Molecules are shown by their SMILES.

In the case of `O=C(CCl)NC1C(O)OC(CO)C(O)C1O` (mixture of isomers) [compound 44], the “isoTOP-ABPP reactivity profile ratio, Q6L8Q7_C108” value on PDE12 C108 (Q6L8Q7) (500 μm, in-vitro_ramos_231) came to 0.8. In addition, on IDH1 C269 (O75874) (500 μm, in-vitro_ramos_231), the “isoTOP-ABPP reactivity profile ratio, O75874_C269” value was 0.8.
As to `COc1ccc2c(c1)CCCN2C(=O)CCl` [compound 2], the “R value (DMSO/fragment)” value on AIP C122 (O00170) (500 μM, in vitro, MDA-MB-231) is 12.5; at AIP C122 (O00170) (500 μM, invitro, ramos), 6.7; on PDE12 C108 (Q6L8Q7) (invitro, ramos) it was 5.1; on IDH1 C269 (O75874) (500 μM, in vitro, MDA-MB-231) it was 20.0.
On to `O=C(CCl)Nc1cc(C(F)(F)F)cc(C(F)(F)F)c1` [compound 3], for which the “R value (DMSO/fragment)” value on AIP C122 (O00170) (500 μM, in vitro, MDA-MB-231) came to 7.0; at AIP C122 (O00170) (500 μM, invitro, ramos), 3.1; on PDE12 C108 (Q6L8Q7) (in vitro, MDA-MB-231), 3.6; at PDE12 C108 (Q6L8Q7) (invitro, ramos) it was 1.8; at PCK2 C306 (Q16822) (500 μM, in vitro, MDA-MB-231), 10.6; at PCK2 C306 (Q16822) (500 μM, invitro, ramos), 0.9. Also, the “R value (DMSO/fragment)” value on IDH1 C269 (O75874) (500 μM, in vitro, MDA-MB-231) is recorded as 20.0; on IDH1 C269 (O75874) (500 μM, invitro, ramos) it was 1.0.
For `COc1ccc(C2CC(c3cccs3)=NN2C(=O)CCl)cc1` (centres unmarked) [compound 4], the “R value (DMSO/fragment)” value is 2.5 at AIP C122 (O00170) (250 μM, in vitro, MDA-MB-231); 0.3 on AIP C122 (O00170) (250 μM, in vitro, Ramos); 2.2 on PCK2 C306 (Q16822) (250 μM, in vitro, MDA-MB-231); 1.6 at IDH1 C269 (O75874) (250 μM, in vitro, MDA-MB-231); 0.6 at IDH1 C269 (O75874) (250 μM, in vitro, Ramos).
In the case of `C=CC(=O)N(c1ccccc1)c1ccc(Br)cc1` [compound 5], the “isoTOP-ABPP ratio, Q16822_C306” value at PCK2 C306 (Q16822) (500 μM, invitro, 231) is 1.7. Also, the “isoTOP-ABPP ratio, O75874_C269” value at IDH1 C269 (O75874) (500 μM, invitro, ramos) was determined as 0.8.
As to `O=C(CCl)N1CCN(S(=O)(=O)c2ccccc2F)CC1` [compound 10], the “isoTOP-ABPP ratio, O00170_C122” value on AIP C122 (O00170) (500 μM, invitro, ramos) amounted to 1.7. Moreover, the “isoTOP-ABPP ratio, Q16822_C306” value at PCK2 C306 (Q16822) (500 μM, invitro, 231) stood at 1.9; at PCK2 C306 (Q16822) (500 μM, invitro, ramos), 1.1. On IDH1 C269 (O75874) (500 μM, invitro, 231), the “isoTOP-ABPP ratio, O75874_C269” value is 20.0.
Consider `Cn1cc(S(=O)(=O)N2CCOCC2)cc1C(=O)NC(=O)CCl` [compound 11], for which the “isoTOP-ABPP ratio, O00170_C122” value on AIP C122 (O00170) (500 μM, invitro, ramos) came out at 2.8. Further, the “isoTOP-ABPP ratio, Q6L8Q7_C108” value on PDE12 C108 (Q6L8Q7) (invitro, 231) was 4.2. The “isoTOP-ABPP ratio, Q16822_C306” value worked out at 3.2 on PCK2 C306 (Q16822) (500 μM, invitro, 231) and 1.2 at PCK2 C306 (Q16822) (500 μM, invitro, ramos). Moreover, the “isoTOP-ABPP ratio, O75874_C269” value at IDH1 C269 (O75874) (500 μM, invitro, 231) was 1.1; on IDH1 C269 (O75874) (500 μM, invitro, ramos), 0.7.
For `O=C(CCl)NC(=O)NC12CC3CC(CC(C3)C1)C2` [compound 12], the “isoTOP-ABPP ratio, O00170_C122” value at AIP C122 (O00170) (500 μM, invitro, ramos) came to 1.3. At PDE12 C108 (Q6L8Q7) (invitro, ramos), the “isoTOP-ABPP ratio, Q6L8Q7_C108” value came to 1.5. Further, the “isoTOP-ABPP ratio, Q16822_C306” value came out at 1.5 on PCK2 C306 (Q16822) (500 μM, invitro, 231) and 0.7 at PCK2 C306 (Q16822) (500 μM, invitro, ramos).
For the compound `C=CC(=O)N(Cc1cccnc1)c1ccc(Oc2ccccc2)c(C(F)(F)F)c1` [compound 15], the “isoTOP-ABPP ratio (reactivity profile), O00170_C122” value at AIP C122 (O00170) (500 μm in-vitro ramos) stood at 1.4. Moreover, at PDE12 C108 (Q6L8Q7) (invitro, 231), the “isoTOP-ABPP ratio, Q6L8Q7_C108” value came to 1.1. In addition, the “isoTOP-ABPP ratio (reactivity profile), O75874_C269” value on IDH1 C269 (O75874) (500 μm in-vitro ramos) came to 0.6.
For `O=C(CCl)NC12CC3CC(CC(C3)C1)C2` [compound 21], at AIP C122 (O00170) (500 μm in-vitro ramos_231), the “isoTOP-ABPP ratio (reactivity profile), O00170_C122” value stood at 1.4. The “isoTOP-ABPP ratio (reactivity profile), Q16822_C306” value at PCK2 C306 (Q16822) (500 μm in-vitro ramos) was determined as 2.0; on PCK2 C306 (Q16822) (500 μm in-vitro ramos_231), 1.2. Also, at IDH1 C269 (O75874) (500 μm in-vitro ramos_231), the “isoTOP-ABPP ratio (reactivity profile), O75874_C269” value came to 1.5.
As for `O=C(CCl)N1CCOCC1` [compound 22], the “isoTOP-ABPP ratio (reactivity profile), O00170_C122” value on AIP C122 (O00170) (500 μm in-vitro ramos) was found to be 1.1; at AIP C122 (O00170) (500 μm in-vitro ramos_231), 1.3. Also, the “isoTOP-ABPP ratio (reactivity profile), O75874_C269” value at IDH1 C269 (O75874) (500 μm in-vitro ramos_231) amounted to 1.0.
With `CC(Br)C(=O)Nc1cc(C(F)(F)F)cc(C(F)(F)F)c1` (centres unmarked) [compound 24], on AIP C122 (O00170) (500 μm in-vitro ramos), the “isoTOP-ABPP ratio (reactivity profile), O00170_C122” value is recorded as 1.3. For the same compound, the “isoTOP-ABPP ratio (reactivity profile), Q6L8Q7_C108” value on PDE12 C108 (Q6L8Q7) (500 μm in-vitro ramos) was found to be 1.4. The “isoTOP-ABPP ratio (reactivity profile), O75874_C269” value on IDH1 C269 (O75874) (500 μm in-vitro ramos) is given as 0.9.
For the compound `CC(Cl)C(=O)Nc1cc(C(F)(F)F)cc(C(F)(F)F)c1` (centres unmarked) [compound 25], the “isoTOP-ABPP ratio (reactivity profile), Q6L8Q7_C108” value at PDE12 C108 (Q6L8Q7) (500 μm in-vitro ramos_231) is on record as 0.8. In addition, the “isoTOP-ABPP ratio (reactivity profile), Q16822_C306” value on PCK2 C306 (Q16822) (500 μm in-vitro ramos_231) came to 0.8. In addition, the “isoTOP-ABPP ratio (reactivity profile), O75874_C269” value on IDH1 C269 (O75874) (500 μm in-vitro ramos_231) was determined as 1.0.
For `O=C(/C=C/c1ccccc1)Nc1cc(C(F)(F)F)cc(C(F)(F)F)c1` [compound 26], the “isoTOP-ABPP ratio (reactivity profile), O00170_C122” value on AIP C122 (O00170) (500 μm in-vitro ramos) was 0.9. Moreover, the “isoTOP-ABPP ratio (reactivity profile), Q6L8Q7_C108” value on PDE12 C108 (Q6L8Q7) (500 μm in-vitro ramos) stood at 1.1.
